Assay [1] concerns B16. Description: Inhibition of alpha-MSH -stimulated melanogenesis in mouse B16 cells assessed as melanin release at 10 uM after 3 days. The conditions noted are these: B16, 72 h. Type of assay: functional.
In assay [2] the test system is B16. Description: Inhibition of alpha-MSH -stimulated melanogenesis in mouse B16 cells assessed as melanin release after 3 days. To be noted: B16, 72 h. Type of assay: functional, cell-based.

This note sets out measurements from ChEMBL document CHEMBL1759930, “Structural requirements of (E)-6-benzylidene-4a-methyl-4,4a,5,6,7,8-hexahydronaphthalen-2(3H)-one derivatives as novel melanogenesis inhibitors” (Bioorg Med Chem Lett, 2011).

The inhibition is the percentage by which the read-out fell short of the control. What is called IC50 is the concentration that inhibits the measured activity by half. As for `CC12CCC3(C=C1CC/C(=C\c1ccccc1)C2=O)SCCS3` (stereo not given), the inhibition at 10 µM with B16 [1] is 85%. In addition, the half-inhibitory concentration (IC50) with B16 [2] is 10.5 µM.

For the compound `Cc1ccc(/C=C2\CCC3=CC4(CCC3(C)C2=O)SCCS4)cc1` (stereo not given), in the assay on B16 [1], the inhibition at 10 µM was more than 100%. In addition, the IC50 in the assay on B16 [2] amounted to 17.1 µM.

Turning to `CCc1ccc(/C=C2\CCC3=CC4(CCC3(C)C2=O)SCCS4)cc1` (stereo not given), in the assay on B16 [1], the inhibition at 10 µM turned out to be 80%. Besides, in the assay on B16 [2], the IC50 is 18.5 µM.

With `CC12CCC3(C=C1CC/C(=C\c1ccc(C(C)(C)C)cc1)C2=O)SCCS3` (stereo not given), the inhibition at 10 µM in the assay with B16 [1] was found to be 83%. Further, in the assay with B16 [2], the IC50 amounted to 13.5 µM.

On to `CC12CCC3(C=C1CC/C(=C\c1ccc(Cl)cc1)C2=O)SCCS3` (stereo not given), for which the inhibition at 10 µM in the assay with B16 [1] came to 35%. In addition, the IC50 with B16 [2] is more than 30 µM.

Consider `CC12CCC3(C=C1CC/C(=C\c1ccc(Cl)c(Cl)c1)C2=O)SCCS3` (stereo not given), for which the inhibition at 10 µM with B16 [1] came to 62%. For the same compound, the IC50 in the assay on B16 [2] stood at 25.5 µM.

Turning to `CC12CCC3(C=C1CC/C(=C\c1cccc4ccccc14)C2=O)SCCS3` (stereo not given), the inhibition at 10 µM with B16 [1] turned out to be 85%. In the assay with B16 [2], the half-maximal inhibitory concentration (IC50) turned out to be 11.5 µM.

For `CC12CCC3(C=C1CC/C(=C\C=C\c1ccccc1)C2=O)SCCS3` (stereo not given), the inhibition at 10 µM in the assay on B16 [1] was 75%. Besides, the IC50 in the assay on B16 [2] amounted to 16.5 µM.

Regarding `COc1ccc(/C=C2\CCC3=CC4(CCC3(C)C2=O)SCCS4)cc1` (stereo not given), in the assay on B16 [1], the inhibition at 10 µM was more than 100%. In the assay with B16 [2], the IC50 was found to be 3.5 µM.

On to `COc1ccc(/C=C2\CCC3=CC4(CCC3(C)C2=O)SCCS4)cc1OC` (stereo not given), for which the inhibition at 10 µM in the assay on B16 [1] is 43%. The IC50 with B16 [2] was more than 30 µM.

In the case of `COCOc1ccc(/C=C2\CCC3=CC4(CCC3(C)C2=O)SCCS4)cc1` (stereo not given), the inhibition at 10 µM in the assay on B16 [1] was 92%. The IC50 in the assay with B16 [2] stood at 6 µM.

`CC12CCC3(C=C1CC/C(=C\c1ccc(OCc4ccccc4)cc1)C2=O)SCCS3` (stereo not given): in the assay on B16 [1], the inhibition at 10 µM worked out at 80%. Further, the IC50 in the assay with B16 [2] is 13.5 µM.

For the compound `CC12CCC3(C=C1CC/C(=C\c1ccc(O)cc1)C2=O)SCCS3` (stereo not given), the inhibition at 10 µM in the assay with B16 [1] stood at 96%. Besides, in the assay on B16 [2], the IC50 was 4.3 µM.

For `CN(C)c1ccc(/C=C2\CCC3=CC4(CCC3(C)C2=O)SCCS4)cc1` (stereo not given), in the assay on B16 [1], the inhibition at 10 µM was determined as 65%. Also, the IC50 in the assay with B16 [2] amounted to 7.6 µM.

For `Cc1ccc(/C=C2\CCC3=CC(=O)CCC3(C)C2=O)cc1` (stereo not given), the inhibition at 10 µM in the assay on B16 [1] was determined as 60%. Also, the IC50 in the assay with B16 [2] is 23 µM.

Take `COc1ccc(/C=C2\CCC3=CC(=O)CCC3(C)C2=O)cc1` (stereo not given): the inhibition at 10 µM in the assay on B16 [1] is 72%. Also, the IC50 in the assay with B16 [2] worked out at 6 µM.

Take `CC1CCC/C(=C\c2ccccc2)C1=O` (stereo not given): the inhibition at 10 µM in the assay on B16 [1] is less than 10%. For the same compound, in the assay with B16 [2], the IC50 was more than 30 µM.

On to `Cc1ccc(/C=C2\CCCC(C)C2=O)cc1` (stereo not given), for which the inhibition at 10 µM with B16 [1] is less than 10%. In the assay with B16 [2], the IC50 was more than 30 µM.

With `CC1CCC/C(=C\c2ccc(Cl)cc2)C1=O` (stereo not given), the inhibition at 10 µM in the assay with B16 [1] was less than 10%. Moreover, the IC50 in the assay with B16 [2] is more than 30 µM.

Take `COc1ccc(/C=C2\CCCC(C)C2=O)cc1` (stereo not given): the inhibition at 10 µM in the assay on B16 [1] is less than 10%. For the same compound, the IC50 in the assay on B16 [2] is more than 30 µM.

Consider `CC1CCC/C(=C\c2ccc(O)cc2)C1=O` (stereo not given), for which the inhibition at 10 µM in the assay with B16 [1] is less than 10%. The IC50 in the assay on B16 [2] was more than 30 µM.

For `CC12CCC3(C=C1CCCC2=O)SCCS3` (stereo not given), in the assay with B16 [1], the inhibition at 10 µM is less than 10%. For the same compound, in the assay on B16 [2], the IC50 is more than 30 µM.

`OC[C@H]1O[C@@H](Oc2ccc(O)cc2)[C@H](O)[C@@H](O)[C@@H]1O` [ARBUTIN]: the IC50 in the assay with B16 [2] worked out at 120 µM.
